Results: ChEMBL document CHEMBL2311510, “A new single-photon emission computed tomography (SPECT) imaging agent for serotonin transporters: [(125)I]Flip-IDAM, (2-((2-((dimethylamino)methyl)-4-iodophenyl)thio)phenyl)methanol” (Bioorg Med Chem Lett, 2013)

What was measured:
Bone [1] = assay: Biodistribution in Sprague-Dawley rat bone assessed as compound level per organ at 11 uCi, iv measured 2 mins post compound dose; format: ADME, organism-based, Bone element; details: in vivo
Brain = assay: Biodistribution in Sprague-Dawley rat brain assessed as compound level per organ at 11 uCi, iv measured 2 mins post compound dose; format: ADME, organism-based; details: in vivo
Pancreas [2] = assay: Biodistribution in Sprague-Dawley rat pancreas assessed as compound level per organ at 11 uCi, iv measured 2 mins post compound dose; format: ADME, organism-based; details: in vivo
Nucleic Acid [3] = assay: Ratio of drug level in cortex to cerebellum in Sprague-Dawley rat at 11 uCi, iv measured 120 mins post compound dose; format: ADME, organism-based; details: in vivo, 2 h
Nucleic Acid [4] = assay: Ratio of drug level in hypothalamus to cerebellum in Sprague-Dawley rat at 11 uCi, iv measured 60 mins post compound dose; format: ADME, organism-based; details: in vivo, 1 h
Nucleic Acid [5] = assay: Ratio of drug level in striatum to cerebellum in Sprague-Dawley rat at 11 uCi, iv measured 30 mins post compound dose; format: ADME, organism-based; details: in vivo, 0.5 h
Nucleic Acid [6] = assay: Ratio of drug level in rest of brain region to cerebellum in Sprague-Dawley rat at 11 uCi, iv measured 2 mins post compound dose; format: ADME, organism-based; details: in vivo
Nucleic Acid [7] = assay: Ratio of drug level in striatum to cerebellum in Sprague-Dawley rat at 11 uCi, iv measured 2 mins post compound dose; format: ADME, organism-based; details: in vivo
Cortex [8] = assay: Biodistribution in Sprague-Dawley rat cortex at 11 uCi, iv measured 60 mins post compound dose; format: ADME, organism-based; details: in vivo, 1 h
Hippocampus = assay: Biodistribution in Sprague-Dawley rat hippocampus at 11 uCi, iv measured 60 mins post compound dose; format: ADME, organism-based; details: in vivo, 1 h
Cerebellum [9] = assay: Biodistribution in Sprague-Dawley rat cerebellum at 11 uCi, iv measured 60 mins post compound dose; format: ADME, organism-based; details: in vivo, 1 h
Cortex [10] = assay: Biodistribution in Sprague-Dawley rat cortex at 11 uCi, iv measured 2 mins post compound dose; format: ADME, organism-based; details: in vivo
Cerebellum [11] = assay: Biodistribution in Sprague-Dawley rat cerebellum at 11 uCi, iv measured 2 mins post compound dose; format: ADME, organism-based; details: in vivo
Lung [12] = assay: Biodistribution in Sprague-Dawley rat lung at 11 uCi, iv measured 120 mins post compound dose; format: ADME, organism-based; details: in vivo, 2 h
Muscle tissue [13] = assay: Biodistribution in Sprague-Dawley rat muscle at 11 uCi, iv measured 120 mins post compound dose; format: ADME, organism-based; details: in vivo, 2 h
Heart [14] = assay: Biodistribution in Sprague-Dawley rat heart at 11 uCi, iv measured 120 mins post compound dose; format: ADME, organism-based; details: in vivo, 2 h
Bone [15] = assay: Biodistribution in Sprague-Dawley rat bone at 11 uCi, iv measured 60 mins post compound dose; format: ADME, organism-based, Bone element; details: in vivo, 1 h
Heart [16] = assay: Biodistribution in Sprague-Dawley rat heart assessed as compound level per organ at 11 uCi, iv measured 2 mins post compound dose; format: ADME, organism-based; details: in vivo
Blood [17] = assay: Biodistribution in Sprague-Dawley rat blood assessed as compound level per organ at 11 uCi, iv measured 2 mins post compound dose; format: ADME, organism-based; details: in vivo
Kidney [18] = assay: Biodistribution in Sprague-Dawley rat kidney at 11 uCi, iv measured 60 mins post compound dose; format: ADME, organism-based; details: in vivo, 1 h
Bone [19] = assay: Biodistribution in Sprague-Dawley rat bone at 11 uCi, iv measured 30 mins post compound dose; format: ADME, organism-based, Bone element; details: in vivo, 0.5 h
Pancreas [20] = assay: Biodistribution in Sprague-Dawley rat pancreas at 11 uCi, iv measured 30 mins post compound dose; format: ADME, organism-based; details: in vivo, 0.5 h
Liver = assay: Biodistribution in Sprague-Dawley rat liver assessed as compound level per organ at 11 uCi, iv measured 120 mins post compound dose; format: ADME, organism-based; details: in vivo, 2 h
Zone of skin = assay: Biodistribution in Sprague-Dawley rat skin assessed as compound level per organ at 11 uCi, iv measured 60 mins post compound dose; format: ADME, organism-based; details: in vivo, 1 h
Muscle tissue [21] = assay: Biodistribution in Sprague-Dawley rat muscle assessed as compound level per organ at 11 uCi, iv measured 60 mins post compound dose; format: ADME, organism-based; details: in vivo, 1 h
Blood [22] = assay: Biodistribution in Sprague-Dawley rat blood assessed as compound level per organ at 11 uCi, iv measured 60 mins post compound dose; format: ADME, organism-based; details: in vivo, 1 h
Bone [23] = assay: Biodistribution in Sprague-Dawley rat bone assessed as compound level per organ at 11 uCi, iv measured 30 mins post compound dose; format: ADME, organism-based, Bone element; details: in vivo, 0.5 h
Kidney [24] = assay: Biodistribution in Sprague-Dawley rat kidney assessed as compound level per organ at 11 uCi, iv measured 30 mins post compound dose; format: ADME, organism-based; details: in vivo, 0.5 h
Lung [25] = assay: Biodistribution in Sprague-Dawley rat lung assessed as compound level per organ at 11 uCi, iv measured 30 mins post compound dose; format: ADME, organism-based; details: in vivo, 0.5 h

SMILES: CN(C)Cc1cc([125I])ccc1Sc1ccccc1CO
- Drug uptake (Bone [1]): 0.03 %ID
- Drug uptake (Brain): 2.52 %ID
- Drug uptake (Pancreas [2]): 0.6 %ID
- Ratio (Nucleic Acid [3]): 1.24
- Ratio (Nucleic Acid [4]): 2.77
- Ratio (Nucleic Acid [5]): 3.13
- Ratio (Nucleic Acid [6]): 0.75
- Ratio (Nucleic Acid [7]): 0.84
- Drug uptake (Cortex [8]): 0.2 % ID/g
- Drug uptake (Hippocampus): 0.21 % ID/g
- Drug uptake (Cerebellum [9]): 0.12 % ID/g
- Drug uptake (Cortex [10]): 1.39 % ID/g
- Drug uptake (Cerebellum [11]): 1.5 % ID/g
- Drug uptake (Lung [12]): 0.27 % ID/g
- Drug uptake (Muscle tissue [13]): 0.06 % ID/g
- Drug uptake (Heart [14]): 0.14 % ID/g
- Drug uptake (Bone [15]): 0.23 % ID/g
- Drug uptake (Heart [16]): 1.17 %ID
- Drug uptake (Blood [17]): 6.43 %ID
- Drug uptake (Kidney [18]): 0.72 % ID/g
- Drug uptake (Bone [19]): 0.4 % ID/g
- Drug uptake (Pancreas [20]): 0.56 % ID/g
- Drug uptake (Liver): 2.69 %ID
- Drug uptake (Zone of skin): 6.4 %ID
- Drug uptake (Muscle tissue [21]): 11 %ID
- Drug uptake (Blood [22]): 3.26 %ID
- Drug uptake (Bone [23]): 0.02 %ID
- Drug uptake (Kidney [24]): 2.66 %ID
- Drug uptake (Lung [25]): 1.5 %ID
